In article PMC10732257 (Oncotarget, 2023):

Tests used:
[1] = Body weight change in MV-4-11 xenograft mice; type: in vivo, female BALB/c nude mice; conditions: all GFH009 treatment groups; through Day 28
Experimental: Figure 7 Effect of GFH009 on body weight change in MV-4-11 xenografts. Body weight change of MV-4-11 xenograft (Figure 6) are expressed as mean ± SEM. ^* […], ^** P < 0.01, ^**** P < 0.0001, two-way ANOVA with Dunnett’s multiple comparisons test analysis compared to the vehicle-treated (control) group.
(§1) Animals dosed BIW were given treatments on 2 consecutive days. Weights were recorded for each mouse every day and tumor volumes assessed 3 times a week. Total treatment administration occurred across 3 consecutive weeks.
Relative change in body weight (RCBW) was determined as RCBW (%) = (Bwi – BW0)/BW0 × 100, where Bwi is body weight of a given mouse on a given day, and BW0 is initial body weight on the day they were assigned to a treatment group.

a2a (adrenoceptor) = target: T1, a2a (adrenoceptor) (Homo sapiens, UniProt P08913); assay: GPCR agonist action testing; type: cell-based
T1 construct: Wuxi AppTech (contract laboratory)
T1 sequence (P08913 whole entry): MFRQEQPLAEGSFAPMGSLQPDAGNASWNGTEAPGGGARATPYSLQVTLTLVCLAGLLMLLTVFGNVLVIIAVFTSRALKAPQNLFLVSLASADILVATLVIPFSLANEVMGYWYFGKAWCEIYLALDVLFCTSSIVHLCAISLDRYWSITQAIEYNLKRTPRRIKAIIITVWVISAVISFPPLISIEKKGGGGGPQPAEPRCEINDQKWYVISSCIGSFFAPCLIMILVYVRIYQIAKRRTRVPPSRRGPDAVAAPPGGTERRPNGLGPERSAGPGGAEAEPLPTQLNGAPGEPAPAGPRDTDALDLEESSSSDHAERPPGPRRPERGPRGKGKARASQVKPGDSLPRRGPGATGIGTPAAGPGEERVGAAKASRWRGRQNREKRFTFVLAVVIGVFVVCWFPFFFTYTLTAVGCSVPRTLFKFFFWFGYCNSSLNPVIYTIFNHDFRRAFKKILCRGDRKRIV
Source text: (§2) Supplementary Table 2: Results of GPCR agonist action testing of GFH009 administered at a
(§3) Agonist action against GPCR type shown below
(§4) Target % Agonist Effect @ Max Dose
(§5) M1 (muscarinic Ach) −2.18
(§6) M2 (muscarinic Ach) −0.63

b2 (adrenoceptor) = target: T2, b2 (adrenoceptor) (Homo sapiens, UniProt P07550); assay: GPCR agonist action testing; type: cell-based
T2 construct: Wuxi AppTech (contract laboratory)
Source text: as §2, §3, §4, §5, §6

b1 (adrenoceptor) = target: T3, b1 (adrenoceptor) (Homo sapiens, UniProt P08588); assay: GPCR agonist action testing; type: cell-based
T3 construct: Wuxi AppTech (contract laboratory)
T3 sequence (P08588 whole entry): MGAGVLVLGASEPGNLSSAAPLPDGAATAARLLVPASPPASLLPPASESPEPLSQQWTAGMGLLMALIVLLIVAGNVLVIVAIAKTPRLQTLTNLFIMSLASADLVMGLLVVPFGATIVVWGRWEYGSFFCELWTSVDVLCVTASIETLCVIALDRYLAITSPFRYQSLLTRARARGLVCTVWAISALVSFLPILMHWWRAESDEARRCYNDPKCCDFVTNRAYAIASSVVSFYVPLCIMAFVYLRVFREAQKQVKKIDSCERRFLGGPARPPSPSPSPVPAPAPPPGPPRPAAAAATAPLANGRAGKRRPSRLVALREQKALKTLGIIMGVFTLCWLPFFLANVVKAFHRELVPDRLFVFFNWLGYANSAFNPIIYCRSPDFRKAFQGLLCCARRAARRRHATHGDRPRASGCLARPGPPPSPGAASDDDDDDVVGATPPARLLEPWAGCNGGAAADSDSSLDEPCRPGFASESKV
Source text: as §2, §3, §4, §5, §6

V1A (vasopressin) = V1A (vasopressin) (Homo sapiens, UniProt P37288); assay: GPCR agonist action testing; type: cell-based
Chain of V1A (vasopressin) (P37288 whole entry): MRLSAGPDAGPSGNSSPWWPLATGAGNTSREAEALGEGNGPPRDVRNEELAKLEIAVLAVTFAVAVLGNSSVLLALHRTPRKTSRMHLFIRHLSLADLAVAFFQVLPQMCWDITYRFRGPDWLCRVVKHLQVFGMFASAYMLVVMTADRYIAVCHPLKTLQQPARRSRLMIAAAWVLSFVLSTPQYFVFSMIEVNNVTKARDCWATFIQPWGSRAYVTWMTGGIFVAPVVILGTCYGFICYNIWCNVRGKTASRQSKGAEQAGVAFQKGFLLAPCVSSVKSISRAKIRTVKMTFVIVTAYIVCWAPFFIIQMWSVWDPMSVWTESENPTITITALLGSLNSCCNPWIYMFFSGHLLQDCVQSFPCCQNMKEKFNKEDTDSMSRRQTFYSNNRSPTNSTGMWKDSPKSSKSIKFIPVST
Source text: as §2, §3, §4, §5, §6

op-d (opioid) = op-d (opioid) (Homo sapiens, UniProt P41143); assay: GPCR agonist action testing; type: cell-based
Chain of op-d (opioid) (P41143 whole entry): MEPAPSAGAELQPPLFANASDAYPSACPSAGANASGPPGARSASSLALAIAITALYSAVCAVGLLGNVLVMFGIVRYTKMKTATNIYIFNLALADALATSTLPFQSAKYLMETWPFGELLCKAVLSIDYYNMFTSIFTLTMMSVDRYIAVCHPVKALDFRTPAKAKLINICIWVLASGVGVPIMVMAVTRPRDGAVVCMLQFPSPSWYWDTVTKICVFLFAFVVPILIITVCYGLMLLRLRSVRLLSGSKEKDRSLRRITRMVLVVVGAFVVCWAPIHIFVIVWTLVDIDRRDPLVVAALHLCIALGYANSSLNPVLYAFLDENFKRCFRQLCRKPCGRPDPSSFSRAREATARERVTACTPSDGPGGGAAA
Source text: as §2, §3, §4, §5, §6

a1a (adrenoceptor) = target: T4, a1a (adrenoceptor) (Homo sapiens, UniProt P35348); assay: GPCR agonist action testing; type: cell-based
T4 construct: Wuxi AppTech (contract laboratory)
T4 sequence (P35348 whole entry): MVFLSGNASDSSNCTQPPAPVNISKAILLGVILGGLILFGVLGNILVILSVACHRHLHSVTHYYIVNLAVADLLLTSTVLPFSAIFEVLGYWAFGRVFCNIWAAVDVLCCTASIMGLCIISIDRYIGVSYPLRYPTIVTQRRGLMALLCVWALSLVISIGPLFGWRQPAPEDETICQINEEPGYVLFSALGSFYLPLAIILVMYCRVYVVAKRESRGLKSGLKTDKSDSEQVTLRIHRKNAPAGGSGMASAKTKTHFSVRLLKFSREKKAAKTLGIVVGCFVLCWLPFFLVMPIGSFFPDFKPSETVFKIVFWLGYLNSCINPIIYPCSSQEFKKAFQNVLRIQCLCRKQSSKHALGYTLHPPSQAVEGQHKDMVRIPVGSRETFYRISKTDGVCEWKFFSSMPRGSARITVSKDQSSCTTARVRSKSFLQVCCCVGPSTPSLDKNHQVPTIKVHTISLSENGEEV
Source text: as §2, §3, §4, §5, §6

M1 (muscarinic Ach) = M1 (muscarinic Ach) (Homo sapiens, UniProt P11229); assay: GPCR agonist action testing; type: cell-based
Chain of M1 (muscarinic Ach) (P11229 whole entry): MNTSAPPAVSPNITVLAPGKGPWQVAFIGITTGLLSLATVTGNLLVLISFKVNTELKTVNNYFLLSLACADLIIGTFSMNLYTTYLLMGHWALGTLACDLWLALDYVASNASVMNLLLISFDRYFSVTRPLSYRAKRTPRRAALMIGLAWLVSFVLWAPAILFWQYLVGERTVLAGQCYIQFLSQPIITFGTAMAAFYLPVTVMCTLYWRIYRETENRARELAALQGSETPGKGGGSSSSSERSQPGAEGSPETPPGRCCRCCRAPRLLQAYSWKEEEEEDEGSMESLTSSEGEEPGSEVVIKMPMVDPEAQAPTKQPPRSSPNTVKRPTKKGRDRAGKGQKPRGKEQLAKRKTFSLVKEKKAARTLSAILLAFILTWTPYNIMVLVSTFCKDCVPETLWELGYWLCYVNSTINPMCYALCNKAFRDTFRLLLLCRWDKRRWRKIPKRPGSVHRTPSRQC
Source text: as §2, §3, §4, §5, §6

ETA (endothelin) = target: T5, ETA (endothelin) (Homo sapiens, UniProt P25101); assay: GPCR agonist action testing; type: cell-based
T5 construct: Wuxi AppTech (contract laboratory)
T5 sequence (P25101 21-427): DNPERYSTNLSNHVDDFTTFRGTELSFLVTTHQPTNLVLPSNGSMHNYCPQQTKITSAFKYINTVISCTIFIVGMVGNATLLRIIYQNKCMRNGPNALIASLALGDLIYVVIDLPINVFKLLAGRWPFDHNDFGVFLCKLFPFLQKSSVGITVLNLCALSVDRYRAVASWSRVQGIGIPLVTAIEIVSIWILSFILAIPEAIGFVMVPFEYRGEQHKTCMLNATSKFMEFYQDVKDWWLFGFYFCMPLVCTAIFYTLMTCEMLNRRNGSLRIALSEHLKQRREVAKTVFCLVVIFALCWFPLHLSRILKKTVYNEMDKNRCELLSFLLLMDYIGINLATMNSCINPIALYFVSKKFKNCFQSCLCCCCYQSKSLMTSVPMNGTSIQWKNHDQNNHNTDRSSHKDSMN
Source text: as §2, §3, §4, §5, §6

M3 (muscarinic Ach) = M3 (muscarinic Ach) (Homo sapiens, UniProt P20309); assay: GPCR agonist action testing; type: cell-based
Chain of M3 (muscarinic Ach) (P20309 whole entry): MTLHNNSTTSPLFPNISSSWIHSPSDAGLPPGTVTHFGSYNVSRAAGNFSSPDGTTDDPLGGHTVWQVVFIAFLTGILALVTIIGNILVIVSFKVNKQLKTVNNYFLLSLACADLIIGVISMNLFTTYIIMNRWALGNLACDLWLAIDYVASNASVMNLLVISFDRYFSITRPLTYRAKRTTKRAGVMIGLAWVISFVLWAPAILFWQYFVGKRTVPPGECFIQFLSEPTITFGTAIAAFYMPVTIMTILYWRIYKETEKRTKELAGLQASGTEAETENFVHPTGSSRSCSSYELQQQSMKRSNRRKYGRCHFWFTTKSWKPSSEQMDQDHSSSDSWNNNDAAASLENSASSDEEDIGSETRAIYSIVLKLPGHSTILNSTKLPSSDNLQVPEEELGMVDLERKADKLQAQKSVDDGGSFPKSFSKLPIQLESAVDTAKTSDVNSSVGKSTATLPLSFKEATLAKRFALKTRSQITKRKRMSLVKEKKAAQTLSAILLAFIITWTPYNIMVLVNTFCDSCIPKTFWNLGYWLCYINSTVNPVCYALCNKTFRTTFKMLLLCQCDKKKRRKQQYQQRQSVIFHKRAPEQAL
Source text: as §2, §3, §4, §5, §6

H2 (histamine) = H2 (histamine) (Homo sapiens, UniProt P25021); assay: GPCR agonist action testing; type: cell-based
Chain of H2 (histamine) (P25021 whole entry): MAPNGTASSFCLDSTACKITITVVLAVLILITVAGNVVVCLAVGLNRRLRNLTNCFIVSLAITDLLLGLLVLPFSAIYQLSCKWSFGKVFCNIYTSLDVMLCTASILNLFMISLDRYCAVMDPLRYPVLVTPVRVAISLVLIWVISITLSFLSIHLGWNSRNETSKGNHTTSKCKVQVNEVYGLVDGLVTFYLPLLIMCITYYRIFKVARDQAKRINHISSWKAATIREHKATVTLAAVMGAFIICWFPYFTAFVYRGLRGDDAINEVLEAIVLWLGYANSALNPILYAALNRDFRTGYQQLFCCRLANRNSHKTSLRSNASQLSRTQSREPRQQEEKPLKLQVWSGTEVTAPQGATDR
Source text: as §2, §3, §4, §5, §6

D1 (dopamine) = target: T6, D1 (dopamine) (Homo sapiens, UniProt P21728); assay: GPCR agonist action testing; type: cell-based
T6 construct: Wuxi AppTech (contract laboratory)
T6 sequence (P21728 whole entry): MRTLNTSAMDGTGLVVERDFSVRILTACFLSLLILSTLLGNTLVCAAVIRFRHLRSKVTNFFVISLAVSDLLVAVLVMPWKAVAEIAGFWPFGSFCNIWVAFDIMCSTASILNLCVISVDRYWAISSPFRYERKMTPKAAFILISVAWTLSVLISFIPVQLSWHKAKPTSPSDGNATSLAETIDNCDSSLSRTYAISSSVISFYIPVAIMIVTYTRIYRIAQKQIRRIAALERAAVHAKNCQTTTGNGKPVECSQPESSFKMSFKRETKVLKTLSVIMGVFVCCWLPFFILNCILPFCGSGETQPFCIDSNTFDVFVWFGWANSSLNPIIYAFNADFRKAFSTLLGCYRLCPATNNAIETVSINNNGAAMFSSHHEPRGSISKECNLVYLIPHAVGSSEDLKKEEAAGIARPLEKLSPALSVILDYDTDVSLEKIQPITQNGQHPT
Source text: as §2, §3, §4, §5, §6

D2 (dopamine) = target: T7, D2 (dopamine) (Homo sapiens, UniProt P14416); assay: GPCR agonist action testing; type: cell-based
T7 construct: Wuxi AppTech (contract laboratory)
T7 sequence (P14416 whole entry): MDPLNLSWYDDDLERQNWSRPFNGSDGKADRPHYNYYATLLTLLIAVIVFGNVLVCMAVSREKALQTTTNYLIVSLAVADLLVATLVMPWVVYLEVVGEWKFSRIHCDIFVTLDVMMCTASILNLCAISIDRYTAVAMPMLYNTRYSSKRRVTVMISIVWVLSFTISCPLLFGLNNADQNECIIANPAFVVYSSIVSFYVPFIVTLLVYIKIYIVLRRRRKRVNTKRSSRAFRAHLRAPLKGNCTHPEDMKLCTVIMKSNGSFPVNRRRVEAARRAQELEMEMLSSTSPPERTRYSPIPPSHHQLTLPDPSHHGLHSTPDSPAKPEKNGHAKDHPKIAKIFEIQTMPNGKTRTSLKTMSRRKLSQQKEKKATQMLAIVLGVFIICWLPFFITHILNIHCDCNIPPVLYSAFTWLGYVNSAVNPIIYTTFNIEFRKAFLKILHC
Source text: as §2, §3, §4, §5, §6

MV-4-11 xenograft = assay: Anti-tumor efficacy in subcutaneous MV-4-11 xenograft model; type: in vivo, female BALB/c nude mice
Experimental: Figure 6 Anti-tumor efficacy of GFH009 in MV-4-11 xenograft model. MV-4-11 xenograft in female BALB/c nude mice were treated with GFH009 or enitociclib at the indicated doses (n = 8 mice per group). Results are expressed as mean ± SEM. ^* P < 0.05, ^**** P < 0.0001, two-way ANOVA with Dunnett’s multiple comparisons test analysis compared to Vehicle control group.
In vivo studies of tumor suppression were conducted in female BALB/c nude mice (Beijing Vital River Laboratory Animal Technology Co, Ltd., Changping, Beijing, China) bearing MV-4-11 xenografts (ATCC, Rockville, MD, USA). Each mouse was inoculated subcutaneously into the right dorsal-region with 5.0 × 10^6 cultured MV-4-11 cells in a total volume of 0.2 ml solution and allowed to develop xenograft tumors. Once tumor size had reached […], mice were divided into groups to receive 1 of 8 different treatment preparations dosed intravenously via the tail vein (Table 2). […] Enitociclib was administered as a 1.0 mg/mL solution in ultrapure water with 5% DMSO. Vehicle control was 50 mM PBS with no dissolved treatment drug.
as §1
Subcutaneous tumor volume (TV) was calculated as TV = (L × W^2)/2, where L was the length and W was the width of the tumor [11]. […] TGI was calculated as TGI (%) = (1 – avTi-0/ avCi-0)) × 100, where avTi-0 is the mean TV of the treatment group on a given day minus the mean TV of this treatment group on the day of group assignment, and avCi-0 is the mean TV of the vehicle control group on a given day minus the mean TV of the vehicle control group on the day of group assignment.
Tumor volume data was subjected to a base-10 logarithmic transformation and subsequent comparisons of TV across groups was made using two-way ANOVA (Dunnett’s multiple comparisons test). All plotting and statistical analyses were conducted using GraphPad Prism 6.00 (GraphPad Software).

MV-4-11 = assay: Apoptosis by Annexin V/PI double staining, flow cytometry; type: cell-based, human; conditions: 6-hour treatment, DMSO control 6.4 ± 0.1%
Experimental: Figure 5 Apoptotic activity of GFH009 in human malignancy cell lines. Four cell lines, MV-4-11 (A), HL-60 (B), U937 (C), and NCI-H929 (D) were treated with different concentrations of GFH009 or enitociclib for 6 hours and harvested for cell apoptosis analysis using Annexin V/PI double staining. Data are presented as mean (SD) from multiple independent experiments. ^* P < 0.05, ^*** P < 0.001, ^**** P < 0.0001, one-way ANOVA with Dunnett’s test analysis compared to DMSO control group.
Initiation of apoptosis by GFH009 was assayed in multiple human cell lines, including MV-4-11, HL-60, U937, and NCI-H929. Cells were incubated at 37°C and 5% CO2 for 6 hours at final concentrations of 1 μM, 0.3 μM, 0.1 μM, 0.03 μM, and 0.01 μM for both GFH009 and Enitociclib. After drug treatment, cells were collected, and apoptosis determined using Annexin V-FITC and propidium iodide (PI) staining (Becton, Dickinson and Co, Franklin Lakes, NJ, USA). Samples were examined using an Attune NxT Flow Cytometer (Thermo Fisher Scientific, Waltham, MA, USA) within 1 hour of staining and analyzed using FlowJo vX.0.7 software. The apoptotic rate between groups was statistically compared by means of one-way ANOVA (Dunnett’s multiple comparisons test). Differences from the dimethyl sulfoxide (DMSO)-only treated control group was considered statistically significant at a P value of < 0.05. All plotting and statistical analysis were conducted using the Prism GraphPad 6 for Windows v6.01.

## COC[C@@H](C)NC1CCC(Nc2cc(-c3csc(NCC4(C#N)CCOCC4)n3)c(Cl)cn2)CC1 (some centres unmarked) [GFH009]
[1]
  Relative change in body mass (RCBW%) vs initial: ≤ 5%
a2a (adrenoceptor)
  % Agonist Effect @ Max Dose (12 µM): −3.87%
b2 (adrenoceptor)
  % Agonist Effect @ Max Dose (12 µM): −0.6%
b1 (adrenoceptor)
  % Agonist Effect @ Max Dose (12 µM): 4.53%
V1A (vasopressin)
  % Agonist Effect @ Max Dose (12 µM): 0.59%
op-d (opioid)
  % Agonist Effect @ Max Dose (12 µM): −0.98%
a1a (adrenoceptor)
  % Agonist Effect @ Max Dose (12 µM): 4.58%
M1 (muscarinic Ach)
  % Agonist Effect @ Max Dose (12 µM): −2.18%
ETA (endothelin)
  % Agonist Effect @ Max Dose (12 µM): −0.08%
M3 (muscarinic Ach)
  % Agonist Effect @ Max Dose (12 µM): 0.49%
H2 (histamine)
  % Agonist Effect @ Max Dose (12 µM): −0.03%
D1 (dopamine)
  % Agonist Effect @ Max Dose (12 µM): −1.49%
D2 (dopamine)
  % Agonist Effect @ Max Dose (12 µM): 3.66%
MV-4-11 xenograft; 10.0 mg/kg i.v., through day 29
  Tumor total volume at 10.0 mg/kg: consistent reduction in total volume
MV-4-11 xenograft; i.v., GFH009 maleate 2.5, 5.0, 10.0 mg/kg QW or BIW, enitociclib 10.0 mg/kg QW, 3 weeks
  Tumor growth (total volume) compared to the vehicle control: tumor growth inhibition
MV-4-11; 0.01 μM
  Apoptosis rate: 6.3 ± 0.1%
MV-4-11; 0.03 μM
  Apoptosis rate: 7.4 ± 0.3%
MV-4-11; 0.1 μM
  Apoptosis rate: 38.1 ± 0.1%
MV-4-11; 0.3 μM
  Apoptosis rate: 67.4 ± 1.0%
MV-4-11; 1 μM
  Apoptosis rate: 61.2 ± 0.3%
